Values quoted from earlier work as cited in patent publication US20220226239A1, “POLYMERIC MICELLE COMPLEXES, FORMULATIONS, AND USES THEREOF” (ARAVASC INC., priority 2019, published 2022).

How the values were obtained:
[1] = for pKa (tri-protic phosphate), first value: first of three pKa values; for pKa (tri-protic phosphate), second value: second of three pKa values; for pKa (tri-protic phosphate), third value: third of three pKa values
[2] = biological target: T1, dihydropyrimidine dehydrogenase (DPD) (Homo sapiens, UniProt Q12882); conditions: background statement
T1 sequence (Q12882 4-1025): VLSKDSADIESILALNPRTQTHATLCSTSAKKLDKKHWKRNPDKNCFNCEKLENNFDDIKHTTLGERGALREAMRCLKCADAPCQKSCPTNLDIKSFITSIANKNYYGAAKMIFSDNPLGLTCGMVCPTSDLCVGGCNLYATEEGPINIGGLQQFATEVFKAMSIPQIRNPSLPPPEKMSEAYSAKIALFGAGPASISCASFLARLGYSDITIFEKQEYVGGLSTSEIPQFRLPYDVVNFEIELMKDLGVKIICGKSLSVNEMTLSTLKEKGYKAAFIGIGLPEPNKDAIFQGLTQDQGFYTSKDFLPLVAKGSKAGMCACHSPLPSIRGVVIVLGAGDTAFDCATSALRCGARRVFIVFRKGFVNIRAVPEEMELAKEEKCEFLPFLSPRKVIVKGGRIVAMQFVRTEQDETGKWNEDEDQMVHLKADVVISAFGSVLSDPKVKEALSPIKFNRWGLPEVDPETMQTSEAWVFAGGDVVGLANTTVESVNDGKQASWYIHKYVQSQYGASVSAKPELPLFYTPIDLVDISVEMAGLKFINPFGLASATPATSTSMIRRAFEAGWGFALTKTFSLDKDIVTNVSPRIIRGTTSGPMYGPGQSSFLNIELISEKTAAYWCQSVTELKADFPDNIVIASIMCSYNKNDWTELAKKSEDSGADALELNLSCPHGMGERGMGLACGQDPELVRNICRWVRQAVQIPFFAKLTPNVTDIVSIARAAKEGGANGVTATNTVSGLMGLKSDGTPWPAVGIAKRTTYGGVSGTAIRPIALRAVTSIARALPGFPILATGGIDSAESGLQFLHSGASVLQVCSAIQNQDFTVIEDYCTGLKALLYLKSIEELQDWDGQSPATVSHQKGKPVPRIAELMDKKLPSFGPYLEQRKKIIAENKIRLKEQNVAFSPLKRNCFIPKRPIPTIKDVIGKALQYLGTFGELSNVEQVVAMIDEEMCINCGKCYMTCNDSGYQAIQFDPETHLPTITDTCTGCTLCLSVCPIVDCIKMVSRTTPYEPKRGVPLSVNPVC

degradation by dihydropyrimidine dehydrogenase (DPD) [2] [%] | SMILES | pKa (tri-protic phosphate), first value [1] | Peturbed pKa (physiological pH) [1] | pKa (tri-protic phosphate), second value [1] | pKa (tri-protic phosphate), third value [1]
 | O=c1[nH]c(=O)n([C@H]2C[C@H](O)[C@@H](COP(=O)(O)O)O2)cc1F [FdUMP, 5-Fluoro-2′-deoxyuridine-5′-O-monophosphate] | phosphate) 2.15, | 6-6.5 | 7.20 | 12.33
> 80 | O=c1[nH]cc(F)c(=O)[nH]1 [Formulation 5-FU, 5-fluorouracil] |  |  |  | 
 | Nc1nc2c(ncn2[C@@H]2O[C@@H]3COP(=O)(O)O[C@H]4[C@@H](O)[C@H](n5cnc6c(N)ncnc65)O[C@@H]4COP(=O)(O)O[C@@H]2[C@@H]3O)c(=O)[nH]1 [cGAMP, 2′, 3′ cyclic guanosine monophosphate-adenosine monophosphate] | phosphate) 2,15, | Greater than 6.5 | 7.20 | 12.33
